In BindingDB's records for doi:10.1021/jm800369f (Amgen, 2008):

Target: Corticosteroid 11-beta-dehydrogenase isozyme 1
Test: Inhibition of human recombinant 11beta-HSD1 expressed in Pichia pastoris

O=C(Nc1cccc(C(=O)N2CCC[C@H]3CCCC[C@@H]32)c1)c1ccccc1 [N-(3-((4aR,8aS)-decahydroquinoline-1-carbonyl)phenyl)benzamide]
IC50: 14 nM
